Results from PubChem BioAssay (NCI).
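These data come from cells grown in 96-well plates and exposed to compound for 48 hours at five concentrations. Here, GI50 denotes the concentration required for 50% inhibition of growth. Definition used: TGI = concentration required for complete inhibition of growth.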

How the values were obtained:
Test in all cases: growth of human tumour cells (NCI), 48 h
[1] = test system: HCC-2998 colon
[2] = test system: HOP-62 NSCLC
[3] = test system: MOLT-4 leukemia
[4] = test system: SK-OV-3 ovarian
[5] = test system: SR leukemia
[6] = test system: U251 CNS
[7] = test system: UACC-62 melanoma
[8] = test system: UO-31 renal
[9] = test system: LOX IMVI melanoma

Structure (SMILES)	TGI [1] [µM]	TGI [2] [µM]	TGI [3] [µM]	TGI [4] [µM]	TGI [5] [µM]	TGI [6] [µM]	TGI [7] [µM]	TGI [8] [µM]	TGI [9] [µM]	GI50 [2] [µM]	GI50 [9] [µM]	GI50 [3] [µM]	GI50 [4] [µM]	GI50 [6] [µM]	GI50 [7] [µM]	GI50 [8] [µM]	GI50 [1] [µM]
Cc1ccc(C)c(N2C(=O)C(=O)C(c3nc4ccccc4o3)/C(=N/N)C2=O)c1 (stereo not given)	> 100	> 100	> 100	> 100	> 100	> 100	> 100	> 100	–	–	–	–	–	–	–	–	–
CCOc1ccc(N=Cc2c3ccccc3nc3ccccc23)cc1	> 100	> 100	> 100	> 100	–	> 100	> 100	> 100	> 100	–	–	–	–	–	–	–	–
Nc1ccc(C2=N/C(=C\c3cccc(N)c3)C(=O)O2)cc1	> 100	–	> 100	> 100	> 100	> 100	> 100	> 100	–	–	–	–	–	–	–	–	–
CCOC(=O)C1=C(Nc2ccc(Br)cc2)OCC1=O	> 100	> 100	> 100	> 100	> 100	> 100	> 100	> 100	–	–	–	–	–	–	–	–	–
NCCN.O=C([O-])[O-].O=C([O-])[O-].[Co+3].[K+]	–	> 100	> 100	> 100	–	> 100	> 100	> 100	> 100	> 100	> 100	> 100	> 100	> 100	> 100	> 100	–
NC(=S)N/N=C1\CCCC\C1=C/c1ccccc1	> 100	> 100	84.4	> 100	–	> 100	> 100	> 100	> 100	–	–	–	–	–	–	–	–
CSc1ccc2c(cc1=O)[C@@H](NC(=O)c1cc(O)c(O)c(O)c1)CCc1cc(O)c(O)c(O)c1-2	> 100	> 100	45.6	> 100	50.9	37.7	36.8	83.8	–	–	–	–	–	–	–	–	–
CC1CCC(C(C)(C)c2ccccc2)C(=O)C1 (stereo not given)	> 100	> 100	> 100	> 100	–	> 100	> 100	> 100	> 100	–	–	–	–	–	–	–	–
N#CC(C#N)=C1CCCOc2c1ccc1ccccc21	> 100	> 100	51	> 100	–	–	> 100	> 100	–	79.5	–	19.5	> 100	–	> 100	> 100	> 100
C1=NC(N(Cc2ccccc2)Cc2ccccc2)N(Cc2ccccc2)N1 (stereo not given)	36.4	32.7	> 100	67.2	–	32.1	27.2	33.9	30.4	–	–	–	–	–	–	–	–
COc1cc(/C=N\O[Si](C)(C)C(C)(C)C)ccc1O[Si](C)(C)C(C)(C)C	56.8	> 100	> 100	> 100	–	71.5	> 100	> 100	62	–	–	–	–	–	–	–	–
CCOC(=O)C(C)(c1c(C)[nH]c2ccccc12)c1c(C)[nH]c2ccccc12	45.2	43.6	42.9	52.9	–	33.4	29.6	35	–	–	–	–	–	–	–	–	–
CC(=O)[CH-]C(=O)c1ccccc1.CC(=O)[CH-]C(=O)c1ccccc1.O=S(=O)([O-])c1cc([O-])c2c([O-])cc(S(=O)(=O)[O-])cc2c1.[Na+].[Ti+4]	> 100	> 100	> 100	> 100	–	> 100	> 100	> 100	> 100	> 100	> 100	34.3	> 100	97.8	> 100	> 100	> 100
CCCCCCCCCCCCCCCCCCC1=C(O)C(=O)C=C(OC)C1=O	> 100	> 100	> 100	> 100	> 100	> 100	> 100	> 100	–	–	–	–	–	–	–	–	–
NC(=O)c1cn(Cc2ccccc2)c(=O)n1Cc1ccccc1	> 100	> 100	> 100	> 100	–	> 100	> 100	> 100	> 100	–	–	–	–	–	–	–	–
CC(C)(C)OC(=O)N1C2CCCC23O[C@@H]1c1cc2c(cc1C3=O)OCO2 (stereo not given in full)	–	> 100	> 100	94	> 100	> 100	67	> 100	–	–	–	–	–	–	–	–	–
O=C1c2ccccc2C(=O)N1C/C=N/NS(=O)(=O)c1ccc(Br)cc1	> 100	> 100	> 100	> 100	> 100	> 100	> 100	> 100	–	–	–	–	–	–	–	–	–
CCC[CH2][Sn]1([CH2]CCC)[O]CC(COc2c(Cl)cc(Cl)cc2Cl)[O]1 (stereo not given)	2.95	7.97	–	12.3	–	2.18	2.86	3.21	–	2.63	–	–	4.18	0.845	1.48	1.68	1.51
NC(CCc1ncc(C(=O)O)s1)C(=O)O (stereo not given)	> 100	–	> 100	> 100	–	> 100	> 100	> 100	> 100	–	–	–	–	–	–	–	–
